{"source": "paper PMC4554882", "about": "(Bioorganic & medicinal chemistry, 2015)", "key": {"[1]": {"system": "tubulin", "assay": "Inhibition of [3H]colchicine binding to tubulin", "conditions": "tubulin 1 μM, [3H]colchicine 5 μM, 10 min at 37 °C"}, "[2]": {"system": "DU145 (prostate cancer)", "conditions": "read-out: GI50 (μM ± SD) DU145, ref [14]; cited from earlier work"}, "[3]": {"system": "tubulin", "conditions": "tubulin 1 μM, [3H]colchicine 5 μM, ref [14], cited from earlier work"}, "[4]": {"assay": "Aqueous solubility", "format": "physicochemical", "conditions": "pH 7.4, Solubility (μg/mL), mean ± SD of three experiments"}, "[5]": {"system": "human tumor cell lines (A549, KB, KBvin, DU145)", "assay": "SRB cytotoxicity, HTCL panel as a whole", "format": "cell-based", "conditions": "read-out: GI50 values across the HTCL panel, range over A549, KB"}, "[6]": {"system": "tubulin", "assay": "Tubulin assembly inhibition", "format": "biochemical"}}, "note": "Like-named read-outs stand apart in the source and are kept apart here."}
{"smiles": "COc1ccc(/C=C\\c2cc(OC)c(OC)c(OC)c2)cc1O", "note": "[CA-4, combretastatin A-4]", "values": [{"measurement": "Inhibition of colchicine binding % Inhibition ± SD 1 μM", "setting": "[1]; inhibitor 1 μM", "result": "84 ± 0.3", "unit": "%"}, {"measurement": "Inhibition of colchicine binding % Inhibition ± SD 5 μM", "setting": "[1]; inhibitor 5 μM", "result": "97 ± 0.4", "unit": "%"}]}
{"smiles": "COc1ccc2c(c1)CCCN2c1nc(Cl)nc2ccccc12", "note": "[Compound 1a]", "values": [{"measurement": "GI50", "setting": "[2]", "result": "0.0015 ± 0.0003", "unit": "µM"}, {"measurement": "Inhibition of colchicine binding % Inhibition ± SD 1 μM", "setting": "[3]; inhibitor 1 μM", "result": "95 ± 0.7", "unit": "%"}, {"measurement": "Inhibition of colchicine binding % Inhibition ± SD 5 μM", "setting": "[3]; inhibitor 5 μM", "result": "99 ± 0.6", "unit": "%"}]}
{"smiles": "COc1ccc2c(c1)CCCN2c1nc(NCCCO)nc2ccccc12", "note": "[Compound 4a, N^1-(2′-(3-Hydroxypropyl)aminoquinazol-4′-yl)-6-methoxy-1,2,3,4-tetrahydro-quinoline]", "values": [{"measurement": "solubility at 4 h", "setting": "[4]", "result": 75, "unit": "µg/mL"}, {"measurement": "GI50", "setting": "[5]", "result": "16 to 20", "unit": "nM"}]}
{"smiles": "COc1ccc2c(c1)CCCN2c1nc(NC2CCCC2)nc2ccccc12", "note": "[Compound 4c]", "values": [{"measurement": "GI50", "setting": "[5]", "result": "140 to 1420", "unit": "nM"}]}
{"smiles": "COc1ccc2c(c1)CCCN2c1cccc2cccnc12", "note": "[Compound 8d, 6-Methoxy-3,4-dihydro-2H-1,8′-biquinoline]", "values": [{"measurement": "inhibitory activity in the assembly assay", "setting": "[6]", "result": "did not display significant inhibitory activity"}]}
